Read-outs that look alike come from different tables or passages of the source.
What was measured:
[1] = system: NCI-H460 non-small cell lung cancer; assay: NCI-H460 non-small cell lung cancer xenograft; type: in vivo, mice; details: 200 mg/kg oral, daily for 21 days
[2] = Plasma pharmacokinetics in N-87 tumor-bearing nude mice; type: in vivo; details: mouse, 200 mg/kg single dose, median values (n = 6)
Protocol: (§1) Xenografted mice bearing N-87 tumors (median volume ˜425 mm^3) were given a single oral dose of Compound 1 (200 mg/kg). Blood, tumor and liver samples (n=6) were collected at 0.25, 0.5, 1, 2, 4, 8, 12, 24, 36 and 48 h post-dose and used to determine Compound 1 concentrations in the plasma and Hsp70 RNA levels in tumor and liver samples (See FIG. 6). Hsp70 RNA levels were determined by qRT-PCR.

[3] = system: Hsp70 protein levels in PBMCs; assay: Hsp70 protein levels in PBMCs of patients (ELISA); type: in vivo, human; details: 8 hours after the first dose, sustained on day 8 and day 22
Protocol: A human clinical study was initiated at a starting dose of 50 mg/m^2. Subjects had recurrent cancer refractory to available systemic therapy. […] For determination of drug levels in humans, plasma was collected prior to drug administration and 0.5, 1, 2, 3, 4, 6, 8, and 24 hours post-dosing on cycle 1 day 1, and cycle 1 day 21. Plasma was collected pre-dose only for cycle 1 day 8.
Hsp70 protein levels were determined by an ELISA with a Hsp 70 ELISA kit (catalog #EKS-700B, Assay Designs, Stressgen, Ann Arbor, Mich.) as per the manufacturer's protocol.

DU-145 prostate cancer = DU-145 prostate cancer xenograft; type: in vivo, mice; details: 200 mg/kg oral, 5-days-on/2-days-off, after 5 cycles
OVCAR-3 ovarian cancer = OVCAR-3 ovarian cancer xenograft; type: in vivo, mice; details: daily for 35 days
[4] = system: NCI-N87 Her2+ gastric cancer; assay: NCI-N87 (Her2+) gastric cancer xenograft in athymic nude mice; type: in vivo
Protocol: (§2) The efficacy of Compound 1 was compared to that of SNX-5422 (Serenex, Pfizer, Inc.) on the growth of NCI-N87 (Her2+) human gastric cancer cells as a xenograft in athymic nude mice model. Animals were dosed with either 200 mg/kg of Compound 1 on days 1 through 21 or 40 mg/kg of SNX-5422 thrice weekly for three weeks. Tumor volumes and body weights were determined from Days 1 to 39.
(§3) Five million NCI-N87 cells were implanted subcutaneously in the right flank of female nude mice (Hsd:athymic nude-Foxn1^nu). When the median tumor volume was approximately 123 mm^3, mice were randomized into three cohorts of ten animals. One cohort was dosed orally with vehicle, one cohort was dosed orally with Compound 1 (200 mg/kg) formulated in vehicle, and one cohort was dosed orally with SNX-5422 (40 mg/kg) formulated in dimethylacetamide/polyethylene glycol 300. Vehicle and Compound 1 were administered on days 1-21 and SNX-5422 was administered thrice weekly on Days 1, 3, 5, 8, 10, 12, 15, 17 and 19. The mice were observed daily for mortality and signs of toxicity.
Xenografted mice bearing N-87 tumors (median volume ˜125 mm^3) were dosed orally with Compound 1 for three weeks with the dosing schedules indicated in FIG. 4.
Additionally, xenografted mice bearing N-87 tumors (median volume ˜115 mm^3) were dosed orally with Compound 1 for twenty-one days at 200 mg/kg, once daily or 100 mg/kg, twice-daily as indicated in FIG. 5. Tumor growth inhibition (TGI) was monitored up to Day 39.

[5] = Oral pharmacokinetics in female Sprague Dawley rats, single dose versus two doses; type: in vivo; details: for Cmax / AUC(0-t) / concentration at 24 h: female, Sprague Dawley, rat, plasma; for AUC(0-t): read-out: AUC(0-24); for concentration at 24 h: read-out: C24hr
Protocol: Female Sprague Dawley rats (n=4 or 5) were dosed orally once with 50 mg/kg (See FIG. 9A) or twice with 25 mg/kg (See FIG. 9B) of Compound 1. Pharmacokinetic parameters are outlined in Table 4 below. […] Effective plasma concentrations of Compound 1 were maintained with twice a day dosing.

Hsp70 RNA = Hsp70 RNA induction in liver and tumor of N-87 xenografted mice (qRT-PCR); type: in vivo; details: single oral dose 200 mg/kg
Protocol: as §1

[6] = system: MIA PaCa-2 pancreatic cancer; assay: MIA PaCa-2 pancreatic cancer xenograft
[7] = system: NCI-N87 Her2+ gastric cancer; assay: NCI-N87 (Her2+) gastric cancer xenograft in athymic nude mice; type: in vivo; details: for TGI (tumor growth inhibition): daily for 21 days
B16 melanoma allograft = assay: B16 melanoma allograft; type: in vivo, mice; details: 200 mg/kg oral, daily for 8 days
[8] = Phase I clinical trial, dose limiting toxicities; type: in vivo, human; details: 50 to 340 mg/m^2 oral, 1 to 13 (28-day) cycles
Protocol: A human clinical study was initiated at a starting dose of 50 mg/m^2. Subjects had recurrent cancer refractory to available systemic therapy. Compound 1 was administered daily by mouth in tablet form for 21 consecutive days in a 28 day cycle to each enrolled subject. For determination of drug levels in humans, plasma was collected prior to drug administration and 0.5, 1, 2, 3, 4, 6, 8, and 24 hours post-dosing on cycle 1 day 1, and cycle 1 day 21. Plasma was collected pre-dose only for cycle 1 day 8. Peripheral blood mononuclear cells (PBMCs) were collected prior to drug administration, and typically 8 and 24 hours post-dose on cycle 1 day 1 and cycle 1 day 21 in order to quantify Hsp70 protein levels as an exploratory biomarker. Patients were men and women with metastatic cancer, ranged in age from 45 to 85 years, and received doses ranging from 50 mg/m^2 to 340 mg/m^2, with a total daily dose of 100-740 mg (Tables 2A and 2B).

in vivo = details: female, Hsd:athymic nude-Foxn1^nu, mouse, po
Protocol: as §2, §3

[9] = system: BT-474 HER2+ breast cancer; assay: BT-474 HER2+ breast cancer xenograft; type: in vivo, mice; details: 200 mg/kg oral, daily for 70 days
OPM-2 multiple myeloma = OPM-2 multiple myeloma xenograft; type: in vivo, mice; details: 200 mg/kg oral, daily for 21 days, p = 0.34
[10] = 25 mg/kg oral, two doses 12 h apart

For `C[C@H](O)C(=O)N1CCC(CCn2c(Sc3cc4c(cc3Br)OCO4)nc3c(N)ncnc32)CC1` [Compound 1, (2S)-1-[4-(2-{6-amino-8-[(6-bromo-1,3-benzodioxol-5-yl)thio]-9H-purin-9-yl}ethyl)piperidin-1-yl]-1-oxopropan-2-ol], the “time to tumor volume 1,500 mm^3” value ([1]; p = 0.006) was “extended”, the “TGI (tumor growth inhibition)” value ([1]; p = 0.05) was 61% and the “treated mice with tumors <1,500 mm^3” value ([1]; compared to 1/10 for vehicle arm) was 4/8 treated mice have tumors. The Cmax ([2]; oral) was 21800 ng/mL, the AUC(0-t) ([2]; oral, read-out: AUC(0-24)) was 136000 ng·h/mL and the Tmax ([2]; po) was 4 h. The half-life ([2]; po) was 4.8 h, the “Hsp70 levels in protein extracts derived from PBMCs” value [3] was “showed an increase” and the “TGI (tumor growth inhibition), average” value (DU-145 prostate cancer) was “Average of ~80% TGI after 5”. For the same compound, the “TGI (tumor growth inhibition)” value (OVCAR-3 ovarian cancer; 150 mg/kg oral) was 84%, the “TGI (tumor growth inhibition)” value (OVCAR-3 ovarian cancer; 200 mg/kg oral) was 97% and the tumor regression ([4]; 200 mg/kg oral, 5-days-on/2-days-off, after 3 cycles) was 44% regression after 3 cycles. For the same compound, the tumor regression ([4]; 200 mg/kg oral, QOD (once every-other-day) for three weeks, Day 21) was 7%, the tumor regression ([4]; 200 mg/kg oral, daily for 21 days, Day 21 (dosing schedule study)) was 40% and the “decrease in median tumor volume” value ([4]; 200 mg/kg oral, days 1-21, by day 21) was 40%. The “TGI (tumor growth inhibition)” value ([4]; 200 mg/kg oral, twice weekly for three weeks, Day 21) was 100%, the “TGI (tumor growth inhibition)” value ([4]; 200 mg/kg oral, weekly (Days 1, 8, 15), Day 21, p = 0.1) was 54% TGI (p = 0.1) Day 21 and the “TGI (tumor growth inhibition)” value ([4]; 400 mg/kg oral, twice weekly for three weeks, Day 21) was 95%. For the same compound, the “tumor growth inhibition compared with SNX-5422” value ([4]; Compound 1 200 mg/kg daily vs SNX-5422 40 mg/kg thrice weekly) was “as effective as SNX-5422”, the Cmax [5, 10] was 1110 ng/mL and the AUC(0-t) [5, 10] was 5120 ng·h/mL. It also gave a concentration at 24 h [5, 10] of 46.7 ng/mL, a Cmax ([5]; 50 mg/kg oral, single dose) of 2120 ng/mL and an AUC(0-t) ([5]; 50 mg/kg oral, single dose) of 5840 ng·h/mL. For the same compound, the concentration at 24 h ([5]; 50 mg/kg oral, single dose) was 1.5 ng/mL, the “plasma concentration at 24 h with BID dosing versus single dose” value ([5]; oral) was “significantly higher” and the “Hsp70 RNA induction in liver” value (Hsp70 RNA; 4 hours post-dose) was roughly 70 fold. The “Hsp70 RNA induction in tumor tissue” value (Hsp70 RNA; 4 hours post-dose) was roughly 110 fold, the “time at which Hsp70 RNA induction reverts to baseline” value (Hsp70 RNA; post-dose) was no more than 12 h and the “TGI (tumor growth inhibition)” value ([6]; 150 mg/kg oral, daily for 15 days, Day 15) was 67%. The “TGI (tumor growth inhibition)” value ([6]; 150 mg/kg oral, daily for 21 days (Table 1)) was 67%, the “TGI (tumor growth inhibition)” value ([6]; 200 mg/kg oral, daily for 15 days, Day 15) was 95% and the “TGI (tumor growth inhibition)” value ([6]; 200 mg/kg oral, daily for 21 days (Table 1)) was 95%. For the same compound, the “TGI (tumor growth inhibition)” value ([7]; 100 mg/kg oral, Day 21, p = 0.003) was 82% TGI (p = 0.003) Day 21, the “TGI (tumor growth inhibition)” value ([7]; 125 mg/kg oral) was 100% TGI (125 mg/kg) and the tumor regression ([7]; 200 mg/kg oral, daily for 21 days (50, 75, 125, 200 mg/kg study)) was 50% regression (200 mg/kg);. For the same compound, the “TGI (tumor growth inhibition)” value (B16 melanoma allograft) was 50% TGI, the dose limiting toxicities [8] was “No dose limiting toxicities have been reported to date” and the MTD (in vivo) was 200 mg/kg. For the same compound, the tumor regression [9] was 17% regression and the “TGI (tumor growth inhibition)” value (OPM-2 multiple myeloma) was 71% TGI (p = 0.34).
